Columns and labels:
UACC-62 [1] = experiment: Cytotoxicity against human UACC62 cells assessed as cell growth at 10 uM after 48 hrs by sulforhodamine B assay relative to control; type: functional; settings: UACC-62, 48 h, read-out: Activity
SNB-19 = experiment: Cytotoxicity against human SNB19 cells assessed as cell growth at 0.01 uM after 48 hrs by sulforhodamine B assay relative to control; type: functional; settings: SNB-19, 48 h, read-out: Activity
UACC-257 [2] = experiment: Cytotoxicity against human UACC257 cells assessed as cell growth at 100 uM after 48 hrs by sulforhodamine B assay relative to control; type: functional; settings: UACC-257, 48 h, read-out: Activity
NCI-H226 = experiment: Cytotoxicity against human NCI-H226 cells assessed as cell growth at 0.01 uM after 48 hrs by sulforhodamine B assay relative to control; type: functional; settings: NCI-H226, 48 h, read-out: Activity
MDA-MB-468 = experiment: Cytotoxicity against human MDA-MB-468 cells assessed as cell growth at 0.01 uM after 48 hrs by sulforhodamine B assay relative to control; type: functional; settings: MDA-MB-468, 48 h, read-out: Activity
RXF 393 = experiment: Cytotoxicity against human RXF393 cells assessed as cell growth at 0.1 uM after 48 hrs by sulforhodamine B assay relative to control; type: functional; settings: RXF 393, 48 h, read-out: Activity
SK-OV-3 = experiment: Cytotoxicity against human SKOV3 cells assessed as cell growth at 0.01 uM after 48 hrs by sulforhodamine B assay relative to control; type: functional; settings: SK-OV-3, 48 h, read-out: Activity
ACHN = experiment: Cytotoxicity against human ACHN cells assessed as cell growth at 0.1 uM after 48 hrs by sulforhodamine B assay relative to control; type: functional; settings: read-out: Activity
SW-620 = experiment: Cytotoxicity against human SW620 cells assessed as cell growth at 0.01 uM after 48 hrs by sulforhodamine B assay relative to control; type: functional; settings: SW-620, 48 h, read-out: Activity
IGROV-1 = experiment: Cytotoxicity against human IGROV1 cells assessed as cell growth at 10 uM after 48 hrs by sulforhodamine B assay relative to control; type: functional; settings: IGROV-1, 48 h, read-out: Activity
MOLT-4 = experiment: Cytotoxicity against human MOLT4 cells assessed as cell growth at 0.01 uM after 48 hrs by sulforhodamine B assay relative to control; type: functional; settings: MOLT-4, 48 h, read-out: Activity
SK-MEL-5 = experiment: Cytotoxicity against human SK-MEL-5 cells assessed as cell growth at 0.1 uM after 48 hrs by sulforhodamine B assay relative to control; type: functional; settings: SK-MEL-5, 48 h, read-out: Activity
MCF7 [3] = experiment: Cytotoxicity against human MCF7 cells assessed as cell growth at 1 uM after 48 hrs by sulforhodamine B assay relative to control; type: functional; settings: MCF7, 48 h, read-out: Activity
A498 [4] = experiment: Cytotoxicity against human A498 cells assessed as cell growth at 100 uM after 48 hrs by sulforhodamine B assay relative to control; type: functional; settings: A498, 48 h, read-out: Activity
DU-145 = experiment: Cytotoxicity against human DU145 cells assessed as cell growth at 0.01 uM after 48 hrs by sulforhodamine B assay relative to control; type: functional; settings: DU-145, 48 h, read-out: Activity
A498 [5] = experiment: Cytotoxicity against human A498 cells assessed as cell growth at 1 uM after 48 hrs by sulforhodamine B assay relative to control; type: functional; settings: A498, 48 h, read-out: Activity
A549 = experiment: Cytotoxicity against human A549/ATCC cells assessed as cell growth at 1 uM after 48 hrs by sulforhodamine B assay relative to control; type: functional; settings: A549, 48 h, read-out: Activity
UO-31 [6] = experiment: Cytotoxicity against human UO31 cells assessed as cell growth at 10 uM after 48 hrs by sulforhodamine B assay relative to control; type: functional; settings: UO-31, 48 h, read-out: Activity
MDA-MB-231 = experiment: Cytotoxicity against human MDA-MB-231 cells assessed as cell growth at 1 uM after 48 hrs by sulforhodamine B assay relative to control; type: functional; settings: MDA-MB-231, 48 h, read-out: Activity
SK-MEL-28 = experiment: Cytotoxicity against human SK-MEL-28 cells assessed as cell growth at 10 uM after 48 hrs by sulforhodamine B assay relative to control; type: functional; settings: SK-MEL-28, 48 h, read-out: Activity
MCF7 [7] = experiment: Cytotoxicity against human MCF7 cells assessed as growth inhibition after 48 hrs by MTT assay; type: functional, cell-based; settings: MCF7, 48 h
RPMI-8226 = experiment: Cytotoxicity against human RPMI8226 cells assessed as growth inhibition after 48 hrs by sulforhodamine B assay; type: functional; settings: RPMI-8226, 48 h
OVCAR-3 = experiment: Cytotoxicity against human OVCAR3 cells assessed as cell growth at 0.1 uM after 48 hrs by sulforhodamine B assay relative to control; type: functional; settings: OVCAR-3, 48 h, read-out: Activity
U-251 = experiment: Cytotoxicity against human U251 cells assessed as cell growth at 100 uM after 48 hrs by sulforhodamine B assay relative to control; type: functional; settings: U-251, 48 h, read-out: Activity
UACC-62 [8] = experiment: Cytotoxicity against human UACC62 cells assessed as growth inhibition after 48 hrs by sulforhodamine B assay; type: functional; settings: UACC-62, 48 h
UO-31 [9] = experiment: Cytotoxicity against human UO31 cells assessed as growth inhibition after 48 hrs by sulforhodamine B assay; type: functional; settings: UO-31, 48 h
SR [10] = experiment: Cytotoxicity against human SR cells assessed as growth inhibition after 48 hrs by sulforhodamine B assay; type: functional; settings: for CC50: read-out: LC50 (the source's name)
NCI-H522 = experiment: Cytotoxicity against human NCI-H522 cells assessed as growth inhibition after 48 hrs by sulforhodamine B assay; type: functional; settings: NCI-H522, 48 h
786-0 [11] = experiment: Cytotoxicity against human 786-0 cells assessed as growth inhibition after 48 hrs by sulforhodamine B assay; type: functional; settings: 786-0, 48 h
SR [12] = experiment: Cytotoxicity against human SR cells assessed as cell growth at 0.1 uM after 48 hrs by sulforhodamine B assay relative to control; type: functional; settings: read-out: Activity
TK-10 = experiment: Cytotoxicity against human TK10 cells assessed as growth inhibition after 48 hrs by sulforhodamine B assay; type: functional; settings: TK-10, 48 h
UACC-257 [13] = experiment: Cytotoxicity against human UACC257 cells assessed as cell growth at 10 uM after 48 hrs by sulforhodamine B assay relative to control; type: functional; settings: UACC-257, 48 h, read-out: Activity
A498 [14] = experiment: Cytotoxicity against human A498 cells assessed as cell growth at 0.01 uM after 48 hrs by sulforhodamine B assay relative to control; type: functional; settings: A498, 48 h, read-out: Activity
786-0 [15] = experiment: Cytotoxicity against human 786-0 cells assessed as cell growth at 0.01 uM after 48 hrs by sulforhodamine B assay relative to control; type: functional; settings: 786-0, 48 h, read-out: Activity
BT-549 = experiment: Cytotoxicity against human BT549 cells assessed as cell growth at 10 uM after 48 hrs by sulforhodamine B assay relative to control; type: functional; settings: BT-549, 48 h, read-out: Activity

COc1ccc(-c2cc(/C=C/C(=O)c3ccc(N)cc3)[nH]n2)cc1OC
growth at 10 µM (UACC-62 [1]): 3% | growth at 0.01 µM (SNB-19): 96% | growth at 100 µM (UACC-257 [2]): -96% | growth at 0.01 µM (NCI-H226): 93% | growth at 0.01 µM (MDA-MB-468): 94% | growth at 0.1 µM (RXF 393): 92% | growth at 0.01 µM (SK-OV-3): 88% | growth at 0.1 µM (ACHN): 93% | growth at 0.01 µM (SW-620): 99% | growth at 10 µM (IGROV-1): 24% | growth at 0.01 µM (MOLT-4): 108% | growth at 0.1 µM (SK-MEL-5): 95% | growth at 1 µM (MCF7 [3]): 81% | growth at 100 µM (A498 [4]): -98% | growth at 0.01 µM (DU-145): 109% | growth at 1 µM (A498 [5]): 89% | growth at 1 µM (A549): 89% | growth at 10 µM (UO-31 [6]): 11% | growth at 1 µM (MDA-MB-231): 98% | growth at 10 µM (SK-MEL-28): -29% | IC50 (MCF7 [7]): 1.9 µM | GI50 (RPMI-8226): 1.28 µM | LC50 (RPMI-8226): > 100 µM | TGI (RPMI-8226): 5.52 µM | growth at 0.1 µM (OVCAR-3): 108% | growth at 100 µM (U-251): -96% | GI50 (UACC-62 [8]): 3.11 µM | LC50 (UACC-62 [8]): 39.6 µM | TGI (UACC-62 [8]): 10.9 µM | GI50 (UO-31 [9]): 3.03 µM | LC50 (UO-31 [9]): 43.2 µM | TGI (UO-31 [9]): 13.1 µM | GI50 (SR [10]): 0.58 µM | TGI (SR [10]): 5.31 µM | CC50 (SR [10]): > 100 µM | GI50 (NCI-H522): 1.65 µM | LC50 (NCI-H522): 6.3 µM | TGI (NCI-H522): 3.22 µM | GI50 (786-0 [11]): 1.88 µM | LC50 (786-0 [11]): 10.8 µM | TGI (786-0 [11]): 4.39 µM | growth at 0.1 µM (SR [12]): 104% | GI50 (TK-10): 1.09 µM | LC50 (TK-10): 48.7 µM | TGI (TK-10): 23 µM | growth at 10 µM (UACC-257 [13]): 39% | growth at 0.01 µM (A498 [14]): 95% | growth at 0.01 µM (786-0 [15]): 91% | growth at 10 µM (BT-549): -91%

COc1cc(C(=O)/C=C/c2cc(-c3ccc4c(c3)OCO4)n[nH]2)cc(OC)c1OC
growth at 10 µM (UACC-62 [1]): -62% | growth at 0.01 µM (SNB-19): 92% | growth at 100 µM (UACC-257 [2]): -97% | growth at 0.01 µM (NCI-H226): 97% | growth at 0.01 µM (MDA-MB-468): 89% | growth at 0.1 µM (RXF 393): 83% | growth at 0.01 µM (SK-OV-3): 98% | growth at 0.1 µM (ACHN): 103% | growth at 0.01 µM (SW-620): 98% | growth at 10 µM (IGROV-1): -26% | growth at 0.01 µM (MOLT-4): 97% | growth at 0.1 µM (SK-MEL-5): 95% | growth at 1 µM (MCF7 [3]): 53% | growth at 100 µM (A498 [4]): -98% | growth at 0.01 µM (DU-145): 102% | growth at 1 µM (A498 [5]): 79% | growth at 1 µM (A549): 85% | growth at 10 µM (UO-31 [6]): -96% | growth at 1 µM (MDA-MB-231): 83% | growth at 10 µM (SK-MEL-28): -56% | IC50 (MCF7 [7]): 0.85 µM | GI50 (RPMI-8226): 0.56 µM | LC50 (RPMI-8226): > 100 µM | TGI (RPMI-8226): 2.53 µM | growth at 0.1 µM (OVCAR-3): 100% | growth at 100 µM (U-251): -98% | GI50 (UACC-62 [8]): 1.81 µM | LC50 (UACC-62 [8]): 8.36 µM | TGI (UACC-62 [8]): 3.89 µM | GI50 (UO-31 [9]): 1.34 µM | LC50 (UO-31 [9]): 5.33 µM | TGI (UO-31 [9]): 2.67 µM | GI50 (SR [10]): 1.2 µM | TGI (SR [10]): 5.63 µM | CC50 (SR [10]): > 100 µM | GI50 (NCI-H522): 1.59 µM | LC50 (NCI-H522): 7.3 µM | TGI (NCI-H522): 3.41 µM | GI50 (786-0 [11]): 1.84 µM | LC50 (786-0 [11]): 6.51 µM | TGI (786-0 [11]): 3.46 µM | growth at 0.1 µM (SR [12]): 94% | GI50 (TK-10): 2.9 µM | LC50 (TK-10): 25.6 µM | TGI (TK-10): 7.17 µM | growth at 10 µM (UACC-257 [13]): -2% | growth at 0.01 µM (A498 [14]): 89% | growth at 0.01 µM (786-0 [15]): 99% | growth at 10 µM (BT-549): -38%

— ChEMBL document CHEMBL4138123, “Design, synthesis and biological evaluation of novel pyrazolochalcones as potential modulators of PI3K/Akt/mTOR pathway and inducers of apoptosis in breast cancer cells” (Eur J Med Chem, 2017)
